Laboratory results published in the supplement of paper PMC10307832.

Tests used:
Assay in all cases: relative viability (nuclei count vs DMSO), 5 days (fraction); higher = more cells survive
[1] = compound: Cn1c(Nc2ccc(C(F)(F)F)cc2)nc2cc(Oc3ccnc(-c4ncc(C(F)(F)F)[nH]4)c3)ccc21 [RAF265] + Cc1nc(NC(=O)N2CCC[C@H]2C(N)=O)sc1-c1ccnc(C(C)(C)C(F)(F)F)c1 [Alpelisib] (partner 2 µM)
In short: (§1)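 One day after seeding in 1536-well plates, lung cancer cell lines were dosed by pin tool. Dosing was either single-drug or a fixed anchor-drug dose plus five library-drug doses (not always all listed) in √10 steps. After 5 days, nuclei were stained in one fix-and-stain step and counted on 4× images, and relative viability is the nuclei count of treated wells over that of vehicle wells, given as the median of duplicate plates.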

[2] = compound: Cn1c(Nc2ccc(C(F)(F)F)cc2)nc2cc(Oc3ccnc(-c4ncc(C(F)(F)F)[nH]4)c3)ccc21 [RAF265] + Nc1ncn([C@H]2C[C@H](O)[C@@H](CO)O2)c(=O)n1 [Decitabine] (partner 2 µM)
In short: as §1

[3] = compound: C1=CC=C2C(=C1)C=CC(=C2SSC3=C(C=CC4=CC=CC=C43)O)O [IPA-3] + CC(=O)Nc1cccc(-n2c(=O)n(C3CC3)c(=O)c3c(Nc4ccc(I)cc4F)n(C)c(=O)c(C)c32)c1 [Trametinib] (partner 0.02 µM)
In short: as §1

[4] = compound: C1=CC=C2C(=C1)C=CC(=C2SSC3=C(C=CC4=CC=CC=C43)O)O [IPA-3] + Nc1nc2[nH]cc(CCc3ccc(C(=O)N[C@@H](CCC(=O)O)C(=O)O)cc3)c2c(=O)[nH]1 [Pemetrexed] (partner 0.2 µM)
In short: as §1

Cell Line | relative viability ([1]; first compound 0.01 µM) | relative viability ([1]; first compound 0.03162 µM) | relative viability ([1]; first compound 0.1 µM) | relative viability ([1]; first compound 0.3162 µM) | relative viability ([1]; first compound 1 µM) | relative viability ([2]; first compound 0.01 µM) | relative viability ([2]; first compound 0.03162 µM) | relative viability ([2]; first compound 0.1 µM) | relative viability ([2]; first compound 0.3162 µM) | relative viability ([2]; first compound 1 µM) | relative viability ([3]; first compound 0.2 µM) | relative viability ([3]; first compound 0.6325 µM) | relative viability ([3]; first compound 2 µM) | relative viability ([3]; first compound 6.325 µM) | relative viability ([3]; first compound 20 µM) | relative viability ([4]; first compound 0.2 µM) | relative viability ([4]; first compound 0.6325 µM) | relative viability ([4]; first compound 2 µM) | relative viability ([4]; first compound 6.325 µM) | relative viability ([4]; first compound 20 µM)
NCI-H1355 | 0.829 | 0.791 | 0.794 | 0.427 | 0.229 | 0.387 | 0.323 | 0.363 | 0.326 | 0.26 | 0.462 | 0.476 | 0.428 | 0.423 | 0.443 | 1.13 | 1.08 | 1 | 1.06 | 0.945
EKVX | 0.863 | 0.842 | 0.944 | 0.516 | 0.624 | 0.404 | 0.318 | 0.39 | 0.201 | 0.281 | 0.403 | 0.314 | 0.359 | 0.38 | 0.376 | 0.407 | 0.439 | 0.429 | 0.426 | 0.582
NCI-H441 | 0.793 |  | 0.429 | 0.392 | 0.311 | 0.25 | 0.227 | 0.22 | 0.278 | 0.214 | 0.535 | 0.437 | 0.348 | 0.473 | 0.449 | 0.258 | 0.262 | 0.27 | 0.236 | 0.236
NCI-H1975 | 0.589 | 0.427 | 0.306 | 0.234 | 0.173 | 0.403 | 0.364 | 0.308 | 0.263 | 0.254 | 0.328 | 0.325 | 0.331 | 0.424 | 0.323 | 0.318 | 0.288 | 0.305 | 0.347 | 0.274
HCC-78 | 0.33 | 0.358 | 0.432 | 0.291 | 0.249 | 0.852 | 0.73 | 0.752 | 0.731 | 0.669 | 0.832 | 0.714 | 0.806 | 0.849 | 0.918 | 0.918 | 0.894 | 0.999 | 0.869 | 0.953
NCI-H2085 | 1 | 0.961 | 0.85 | 1.03 | 0.891 | 0.547 | 0.506 | 0.571 | 0.587 | 0.59 | 0.625 | 0.602 | 0.637 | 0.577 | 0.714 | 0.89 | 0.828 | 0.864 | 0.821 | 0.993
H3255 | 0.706 | 0.836 | 0.691 |  | 0.455 | 0.666 | 0.564 | 0.682 | 0.198 | 0.43 | 0.756 | 0.573 | 0.629 | 0.554 | 0.606 | 0.572 | 0.551 | 0.561 | 0.527 | 0.548
NCI-H2087 | 0.861 | 0.89 | 0.909 | 0.709 | 0.677 | 0.287 | 0.257 | 0.251 | 0.188 | 0.147 | 0.235 | 0.267 | 0.178 | 0.227 | 0.271 | 0.698 | 0.642 | 0.645 | 0.678 | 0.608
LC-2-ad | 0.771 | 0.727 | 0.724 | 0.35 | 0.202 | 0.778 | 0.814 | 0.884 | 0.773 | 0.516 | 0.958 | 0.943 | 0.93 | 0.948 | 0.889 | 0.294 | 0.28 | 0.285 | 0.281 | 0.307
PC-3 [JPC-3] | 1 | 0.993 | 1.08 | 0.331 | 0.644 | 0.924 | 0.785 | 0.831 | 0.488 | 0.655 | 0.785 | 0.713 | 0.744 | 0.705 | 0.699 | 1.12 | 1.23 | 1.18 | 1.03 | 1.03
EBC-1 | 0.907 | 0.794 | 0.495 | 0.403 | 0.541 |  |  |  |  |  |  |  |  |  |  |  |  |  |  | 
HCC-15 | 0.949 | 0.776 | 0.844 | 0.544 | 0.439 | 0.714 | 0.613 | 0.524 | 0.545 | 0.42 | 0.444 | 0.352 | 0.391 | 0.422 | 0.436 | 0.222 | 0.23 | 0.214 | 0.225 | 0.221
NCI-H1563 | 0.977 | 0.999 | 0.973 | 0.898 | 0.985 |  |  |  |  |  |  |  |  |  |  | 0.807 | 0.797 | 0.792 | 1 | 0.864
COR-L 105 | 1.09 | 0.948 | 1.16 | 0.603 | 0.461 | 0.688 | 0.773 | 0.599 | 0.497 | 0.436 | 0.484 | 0.509 | 0.474 | 0.445 | 0.442 | 1.22 | 0.904 | 1.07 | 1.18 | 1.14
NCI-H520 | 0.819 | 0.754 | 0.889 | 0.916 | 0.534 | 0.567 | 0.418 | 0.478 | 0.452 | 0.345 | 1.01 | 0.654 |  | 0.685 | 0.528 | 0.75 | 0.664 |  | 0.64 | 0.755
LU99A | 0.474 | 0.384 | 0.347 | 0.252 | 0.21 | 0.814 | 0.842 | 0.652 | 0.477 | 0.302 | 0.608 | 0.551 | 0.502 | 0.553 | 0.514 | 0.188 | 0.189 | 0.143 | 0.187 | 0.175
NCI-H1666 | 1.1 | 1.11 | 0.942 | 0.815 | 0.547 | 0.851 | 0.915 | 0.71 | 0.722 | 0.694 | 0.902 | 0.855 | 0.886 | 0.924 | 0.884 | 0.842 | 0.853 | 0.874 | 0.796 | 0.83
